How the values were obtained:
Assay type in all cases: in vivo
[1] = tested on: cowpea aphid (aphis craccivora); test: Activity against cowpea aphid
Method: 10. Activity against cowpea aphid (aphis craccivora)
The active compounds were formulated in 50:50 acetone:water. Potted cowpea plants colonized with 100-150 aphids of various stages were sprayed after the pest population has been recorded. Population reduction was recorded after 24, 72, and 120 hours.

[2] = tested on: brown planthopper (nilaparvata lugens); test: Activity against brown planthopper; settings: rice seedlings sprayed, recorded after 24, 72 and 120 hours
Method: 9. Activity against brown planthopper (nilaparvata lugens)
The active compounds were formulated in 50:50 acetone:water. Potted rice seedlings were sprayed with 10 ml test solution, air dried, placed in cages and inoculated with 10 adults. Percent mortality was recorded after 24, 72 and 120 hours.

[3] = tested on: silverleaf whitefly (bemisia argentifolii); test: Activity against silverleaf whitefly; settings: in Gossypium hirsutum, 72 h
Method: 8. Activity against silverleaf whitefly (bemisia argentifolii)
(§1) The active compounds were formulated in 50:50 acetone:water and 100 ppm Kinetic™ surfactant.
Selected cotton plants were grown to the cotyledon state (one plant per pot). The cotyledons were dipped into the test solution to provide complete coverage of the foliage and placed in a well-vented area to dry. Each pot with treated seedling was placed in a plastic cup and 10 to 12 whitefly adults (approximately 3-5 day old) were introduced. The insects were colleted using an aspirator and an 0.6 cm, non-toxic Tygon® tubing (R-3603) connected to a barrier pipette tip. The tip, containing the collected insects, was then gently inserted into the soil containing the treated plant, allowing insects to crawl out of the tip to reach the foliage for feeding. The cups were covered with a reusable screened lid (150 micron mesh polyester screen PeCap from Tetko Inc). Test plants were maintained in the holding room at about 25° C. and 20-40% relative humidity for 3 days avoiding direct exposure to the fluorescent light (24 hour photoperiod) to prevent trapping of heat inside the cup. Mortality was assessed 3 days after treatment of the plants.

[4] = tested on: cotton aphid (aphis gossypii); test: Activity against cotton aphid; settings: 120 h, cotton cotyledons dipped, after 5 days
From the text: 5. Activity against cotton aphid (aphis gossypii)
as §1
Cotton plants at the cotyledon stage (one plant per pot) were infested by placing a heavily infested leaf from the main colony on top of each cotyledon. The aphids were allowed to transfer to the host plant overnight, and the leaf used to transfer the aphids was removed. The cotyledons were dipped in the test solution and allowed to dry. After 5 days, mortality counts were made.

[5] = tested on: bean aphid (aphis fabae); test: Activity against bean aphid; settings: 72 h
From the text: 7. Activity against bean aphid (aphis fabae)
as §1
Nasturtium plants grown in Metro mix in the 1st leaf-pair stage (variety ‘Mixed Jewle’) were infested with approximately 2-30 laboratory-reared aphids by placing infested cut plants on top of the test plants. The cut plants were removed after 24 hr. Each plant was dipped into the test solution to provide complete coverage of the foliage, stem, protruding seed surface and surrounding cube surface and allowed to dry in the fume hood. The treated plants were kept at about 25° C. with continuous fluorescent light. Aphid mortality was determined after 3 days.

[6] = tested on: acrobat ant (Crematogaster spp.); test: Activity via glass contact; settings: rate of 10 ppm, 24 hours after treatment
From the text: (§2) 1. Activity against Argentine ant (Linepithema humile), harvester ant (Pogonomyrmex californicus), acrobat ant (Crematogaster spp.), carpenter ant (Camponotus floridanus), fire ant (Solenopsis invicta), house fly (Musca domestica), stable fly (Stomoxys calcitrans), flesh fly (Sarcophaga sp.), yellowfever mosquito (Aedes aegyptil), house mosquito (Culex quinquefasciatus), malaria mosquito (Anopheles albimanus), German cockroach (Blattella Germanica), cat flea (Ctenocephalides felis), and brown dog tick (Rhipicephalus sanguineus) via glass contact
(§3) Glass vials were treated with 0.5 ml of a solution of active ingredient in acetone and allowed to dry. Insects or ticks were placed into each vial together with some food and moisture supply.

[7] = tested on: house fly (Musca domestica); test: Activity via glass contact; settings: rate of 5 ppm, 24 hours after treatment
From the text: as §2, §3

[8] = tested on: German cockroach (Blattella Germanica); test: Activity via glass contact; settings: rate of 5 ppm, 24 hours after treatment
From the text: as §2, §3

[9] = tested on: yellowfever mosquito (Aedes aegypti); test: Activity via glass contact; settings: rate of 0.1 ppm, 24 hours after treatment
From the text: as §2, §3

[10] = tested on: eastern subterranean termite (Reticulitermes flavipes); test: Activity via soil contact; settings: rate of 1 weight %, 3 days after treatment
Method: (§4) 2. Activity against Argentine ant (Linepithema humile), acrobat ant (Crematogaster spp.), carpenter ant (Camponotus floridanus), fire ant (Solenopsis invicta), and eastern subterranean termite (Reticulitermes flavipes) via soil contact
For termites, a thin layer of 1% agar was dispensed into Petri dishes. A thin layer of pre-treated soil was spread over the agar. For soil treatment, the active ingredient was diluted in acetone on a weight-to-weight basis and incorporated into the soil. Termite workers were introduced into each dish. Filter paper served as a food source. Test dishes were held at about 25° C. Termites were observed daily for mortality (dead or unable to stand upright and showing only weak movement).

[11] = tested on: Colorado Potato Beetle; test: Pesticidal action of synergistic mixtures, leaf dip bioassay on potato leaves; settings: Leptinotarsa decemlineata, foliar, 120 h
From the text: (§5) 12. Pesticidal action of synergistic mixtures of compounds of formula I
(§6) Potato plants for Colorado potato beetle and two-leaf cotton plants for tobacco budworm were utilized for bioassays. Excised plant leaves were dipped into 1:1 acetone/water dilutions of the active compounds. After the leaves had dried, they were individually placed onto water-moistened filter paper on the bottoms of Petri dishes. Each dish was infested with 5-7 larvae and covered with a lid. Each treatment dilution was replicated 4 times. Test dishes were held at approximately 27° C. and 60% humidity. Numbers of live and morbid larvae were assessed in each dish at 5 days after treatment application, and percent mortality was calculated.
(§7) To determine if an insecticidal mixture was synergistic, Limpel's formula was used: E=X+Y−XY/100 • E=Expected % mortality of the mixture • X=% mortality of compound X, as measured independently • Y=% mortality of compound Y, as measured independently
(§8) Synergism was evident if the % observed mortality for the mixture was greater than the % expected mortality.

[12] = tested on: diamond back moth (plutella xylostella); test: Activity against diamond back moth; settings: in Brassica oleracea, foliar, 72 h
Method: 11. Activity against diamond back moth (plutella xylostella)
The active compounds were formulated in 50:50 acetone:water and 0.1% (vol/vol) Alkamuls EL 620 surfactant. A 6 cm leaf disk of cabbage leaves was dipped in the test solution for 3 seconds and allowed to air dry in a Petri plate lined with moist filter paper. The leaf disk was inoculated with 10 third instar larvae and kept at 25-27° C. and 50-60% humidity for 3 days. Mortality was assessed after 72 h of treatment.

[13] = tested on: eastern subterranean termite (Reticulitermes flavipes); test: Activity via bait; settings: rate of 0.005 weight %; three days after treatment; bait (treated filter paper)
Method: 3. Activity against Argentine ant (Linepithema humile), acrobat ant (Crematogaster spp.), carpenter ant (Camponotus floridanus), fire ant (Solenopsis invicta), house fly (Musca domestica), eastern subterranean termite (Reticulitermes flavipes), Formosan subterranean termite (Coptotermes formosanus), and German cockroach (Blattella Germanica) via bait
For termites, active ingredient in acetone was applied to filter papers. % a.i. were calculated on basis of the weight of the filter paper. Bioassays were conducted with one treated filter and ca. 30 termite workers per test Petri dish. Test dishes were maintained at 25° C. and observed daily for mortality (dead or moribund insects) or intoxication.

[14] = tested on: carpenter ant (Camponotus floridanus); test: Activity via soil contact; settings: 24 h, read-out: mortality of Camponotus floridanus
Method: as §4
For ants, tests were conducted in Petri dishes. A thin layer of 1% agar in water was dispensed into the dishes and Florida sandy soil was spread over the agar. The active ingredient was dissolved in acetone and dispensed over the sand. Dishes were vented to evaporate the acetone, infested with ants, and covered. A 20% honey water solution was placed in each dish. The dishes were maintained at 22° C. and observed for mortality at various time intervals.

[15] = tested on: green peach aphid (Myzus persicae); test: Activity against green peach aphid; settings: 120 h, pepper leaves dipped, after 5 days, relative to check plants
From the text: 6. Activity against green peach aphid (Myzus persicae)
as §1
Pepper plants in the 2nd leaf-pair stage (variety ‘California Wonder’) were infested with approximately 40 laboratory-reared aphids by placing infested leaf sections on top of the test plants. The leaf sections were removed after 24 hr. The leaves of the intact plants were dipped into gradient solutions of the test compound and allowed to dry. Test plants were maintained under fluorescent light (24 hour photoperiod) at about 25° C. and 20-40% relative humidity. Aphid mortality on the treated plants, relative to mortality on check plants, was determined after 5 days.

[16] = tested on: Tobacco Budworm; test: Pesticidal action of synergistic mixtures, leaf dip bioassay on cotton leaves; settings: Heliothis virescens, foliar, 120 h
From the text: as §5, §6, §7, §8

[17] = dose rate 100 ppm, 5 days after treatment
[18] = read-out: % Mortality of Tobacco Budworm

Structure (SMILES) | mortality at 300 ppm [1] | mortality at 300 ppm [2] | mortality at 300 ppm [3] | mortality at 300 ppm [4] | mortality at 300 ppm [5] | mortality of Crematogaster spp. [6] | mortality at 5 ppm [7] | mortality at 5 ppm [8] | mortality at 0.1 ppm [9] | mortality of Reticulitermes flavipes [10] | mortality at 100 ppm [11, 17] | mortality at 300 ppm [12] | mortality of Reticulitermes flavipes [13] | mortality at 10 ppm [14] | mortality at 300 ppm [15] | mortality at 100 ppm [16, 17] | mortality at 300 ppm ([16]; dose rate 300 ppm, 5 days after treatment) | mortality at 0.06 ppm ([11]; read-out: % Mortality of Colorado Potato Beetle) | mortality at 0.03 ppm [16, 18] | mortality at 0.06 ppm [16, 18]
Cc1nc(C2CC2(Cl)Cl)nn1-c1c(Cl)cc(C(F)(F)F)cc1Cl (stereo not shown) [I-2, 1-(2,6-dichloro-4-trifluoromethylphenyl)-3-(2,2-dichlorocyclopropyl)-5-methyl-1,2,4-triazole] | 100% | 100% |  |  |  |  |  |  |  |  |  |  |  |  |  |  |  |  |  | 
Cc1nc(C2(C)CC2(Cl)Cl)nn1-c1c(Cl)cc(C(F)(F)F)cc1Cl (stereo not shown) [I-3, 3-(2,2-Dichloro-1-methyl-cyclopropyl)-1-(2,6-dichloro-4-trifluoromethyl-phenyl)-5-methyl-1H-[1,2,4]triazole] | 100% | 100% | 100% | 100% | 100% | 100% | 100% | 100% | 100% | 100% | 12.5% | 100% | 100% | 100% | 100% | 0% | 71.4% |  |  | 
CC1(C)C(C=C(Cl)Cl)C1C(=O)OC(C#N)c1cccc(Oc2ccccc2)c1 (stereo not drawn) [alpha-cypermethrin, reference compound] |  |  |  |  |  |  |  |  |  |  |  |  |  |  |  |  |  | 17.5% | 0% | 7.2%

— patent US7754749B2, “Derivatives of a 1-phenyltriazole” (BASF Aktiengesellschaft, priority 2005, dated 2010)
